# US20060009425A1, “Oral formulations of paricalcitol” (priority 2004, published 2006)
# Read-outs that look alike come from different tables or passages of the source.
# Assay: Single and multiple dose pharmacokinetics, moderate to severe chronic renal impairment (Example 4, Table 23)
# Format: in vivo, human
# Set-up: AUC0-24 on Study Day 8 vs. AUC0-∞ on Study Day 1, Point Estimate / AUC0-24 on Study Day 8 vs. AUC0-∞ on Study Day 1, 95% Confidence Interval: unit not given beside the values
# Details: for Cmax / Tmax / half-life / AUC(0-t) / AUC(0-inf) / fraction unbound / concentration at 24 h: human, plasma, oral; for AUC(0-t): read-out: AUC0-24; for concentration at 24 h: Study Day 9, read-out: trough concentration 24 h post dose on Study Day 8
# Method: Methodology: This was a Phase 1, open-label, single and multiple-dose, multi-center study. A sufficient number of subjects were screened to have approximately 15 subjects with moderate renal impairment (CKD Stage 3) (Group 1, Glomerular Filtration Rate (GFR) of 30-60 mL/min) and approximately 15 subjects with severe renal impairment (CKD Stage 4) (Group 2, GFR <30 mL/min, not requiring dialysis) enrolled in the study. The subjects in moderate renal impairment group received 4 μg paricalcitol capsule on Study Day 1, and 4 μg QD for 6 doses over Study Days 3-8. The subjects in severe renal impairment group received 3 μg paricalcitol capsule on Study Day 1 and 3 μg QD for 6 doses over Study Days 3-8. Each dose of study was taken orally with approximately 180 mL of water at 0800, 30 minutes after breakfast was served.
# Plasma concentrations of paricalcitol were determined using a validated liquid chromatography method with tandem mass spectrometric assay method at Abbott Laboratories, Ill.
# Pharmacokinetic: Values for the pharmacokinetic parameters of paricalcitol, including the maximum observed plasma concentration (Cmax), the time to Cmax(Tmax), the terminal phase elimination rate constant (β), half life (t1/2), area under the plasma concentration-time curve (AUC), apparent total clearance (CL/F), and apparent volume of distribution (Vdβ/F) were determined using noncompartmental methods. Values of these parameters were determined after both single (first) dose (Study Day 1) and multiple doses (Study Day 8). In addition, minimum observed plasma concentration (Cmin), accumulation index (AI), and degree of fluctuation (DFL) after multiple doses were determined for the dose on Study Day 8 (steady state).
# Pharmacokinetic: Point estimates and the corresponding 95% confidence intervals were obtained for central values of the pharmacokinetic parameters for each of the renal impairment groups. Two-sample t-test was performed to compare the pharmacokinetic parameters across the two renal impairment groups on each of Study Days 1 and 8. […] Within the framework of the analysis, the mean trough concentration values on Study Days 6, 7 and 8 were each compared to that at 24 h post Study Day 8 dose.
# An analysis of variance (ANOVA) was performed on Tmax, β, and the logarithms of AUC and Cmax to compare the single-dose and steady-state data for each of the renal impairment groups. The same test was also performed for each group for the difference between the natural logarithm of the AUC0-24 on Day 8 and the natural logarithm of the AUC0-∞ on Study Day 1. Then the point estimate and 95% confidence interval for the ratio of the central values (the central value of the AUC0-24 on Study Day 8 to that of the AUC0-∞ on Study Day 1) were obtained by exponentiating the corresponding point estimate for the difference.
# Paricalcitol capsules are under development for the prevention and treatment of secondary hyperparathyroidism in chronic kidney disease (CKD). The aim of this open-label, single and multiple dose, multi-center study was to evaluate the safety, and pharmacokinetics (PK) of paricalcitol in CKD Stage 3 (single 4 μg dose on Day 1 and 4 μg QD from Days 3-8) and CKD Stage 4 (single 3 μg dose on Day 1 and 3 μg QD from Days 3-8) subjects.
# [1] = 3 ug, severe renal impairment, 3 μg QD, Study Day 8
# [2] = 3 ug, severe renal impairment, 3 μg, Study Day 1
# [3] = 4 ug, moderate renal impairment, 4 μg QD, Study Day 8
# [4] = 4 ug, moderate renal impairment, 4 μg, Study Day 1
# [5] = 4 μg, moderate renal impairment
# [6] = moderate renal impairment, 4 μg QD, Study Day 8
# [7] = moderate renal impairment, 4 μg, Study Day 1
# [8] = severe renal impairment, 3 μg QD, Study Day 8
# [9] = severe renal impairment, 3 μg, Study Day 1
structure (smiles),measurement,setting,value
"C[C@H](/C=C/[C@H](C)C(C)(C)O)[C@H]1CC[C@H]2/C(=C/C=C3C[C@@H](O)C[C@H](O)C3)CCC[C@]12C [Paricalcitol, 19-nor-1α,3β,25-trihydroxy-9,10-secoergosta-5(Z); 7(E),22(E)-triene]",Cmax,[1],0.097 ± 0.023 ng/mL
same,Tmax,[1],9.1 ± 5.5 h
same,half-life,"3 ug, severe renal impairment, 3 μg QD, Study Day 8, harmonic mean ± pseudo-standard deviation, read-out: t1/2 (converted)",22.9 ± 5.63 h
same,AUC(0-t),[1],1.75 ± 0.421 ng·h/mL
same,AUC(0-inf),[2],2.13 ± 0.733 ng·h/mL
same,Cmax,[2],0.065 ± 0.012 ng/mL
same,Tmax,[2],5.9 ± 3.6 h
same,half-life,"3 ug, severe renal impairment, 3 μg, Study Day 1, harmonic mean ± pseudo-standard deviation, read-out: t1/2 (converted)",19.7 ± 7.19 h
same,AUC(0-t),[2],1.02 ± 0.23 ng·h/mL
same,fraction unbound,"3 μg, severe renal impairment",0.0008 ± 0.0002
same,concentration at 24 h,"3 μg, severe renal impairment",0.057 ± 0.014 ng/mL
same,Cmax,[3],0.155 ± 0.057 ng/mL
same,Tmax,[3],4.2 ± 1.9 h
same,half-life,"4 ug, moderate renal impairment, 4 μg QD, Study Day 8, harmonic mean ± pseudo-standard deviation, read-out: t1/2 (converted)",15.5 ± 3.21 h
same,AUC(0-t),[3],2.22 ± 0.701 ng·h/mL
same,AUC(0-inf),[4],2.42 ± 0.614 ng·h/mL
same,Cmax,[4],0.113 ± 0.036 ng/mL
same,Tmax,[4],4.7 ± 2.5 h
same,half-life,"4 ug, moderate renal impairment, 4 μg, Study Day 1, harmonic mean ± pseudo-standard deviation, read-out: t1/2 (converted)",16.8 ± 2.65 h
same,AUC(0-t),[4],1.45 ± 0.407 ng·h/mL
same,fraction unbound,[5],0.0008 ± 0.0005
same,concentration at 24 h,[5],0.057 ± 0.019 ng/mL
same,half-life,"moderate and severe renal impairment (CKD Stage 3 and 4) subjects, read-out: mean half-life",16 to 23 h
same,steady state essentially reached by,"moderate and severe renal impairment subjects, QD dosing",≤ 6 Study Day
same,"AUC0-24 on Study Day 8 vs. AUC0-∞ on Study Day 1, 95% Confidence Interval",moderate renal impairment,0.8150-0.9896
same,"AUC0-24 on Study Day 8 vs. AUC0-∞ on Study Day 1, Point Estimate",moderate renal impairment,0.8981
same,CL/F,[6],2.014 ± 0.774 L/h
same,Cmax/Dose,[6],0.039 ± 0.014 ng/mL/µg
same,Cmin,[6],0.047 ± 0.018 ng/mL
same,DFL (degree of fluctuation),[6],116.77 ± 35.24%
same,Vdβ/F,[6],46.76 ± 19.35 L
same,β,[6],0.045 ± 0.009 h−^1
same,CL/F,[7],1.766 ± 0.505 L/h
same,Cmax/Dose,[7],0.028 ± 0.009 ng/mL/µg
same,Vdβ/F,[7],43.72 ± 14.45 L
same,β,[7],0.041 ± 0.007 h−^1
same,pre-dose trough concentration,"moderate renal impairment, Study Day 6",0.050 ± 0.016 ng/mL
same,pre-dose trough concentration,"moderate renal impairment, Study Day 7",0.053 ± 0.014 ng/mL
same,pre-dose trough concentration,"moderate renal impairment, Study Day 8",0.053 ± 0.019 ng/mL
same,"AUC0-24 on Study Day 8 vs. AUC0-∞ on Study Day 1, 95% Confidence Interval",severe renal impairment,0.7612-0.9227
same,"AUC0-24 on Study Day 8 vs. AUC0-∞ on Study Day 1, Point Estimate",severe renal impairment,0.8380
same,CL/F,[8],1.751 ± 0.388 L/h
same,Cmax/Dose,[8],0.032 ± 0.008 ng/mL/µg
same,Cmin,[8],0.049 ± 0.010 ng/mL
same,DFL (degree of fluctuation),[8],64.86 ± 17.79%
same,Vdβ/F,[8],61.61 ± 20.34^¥ L
same,β,[8],0.030 ± 0.007 h−^1
same,CL/F,[9],1.517 ± 0.359 L/h
same,Cmax/Dose,[9],0.022 ± 0.004 ng/mL/µg
same,Vdβ/F,[9],46.40 ± 12.45 L
same,β,[9],0.035 ± 0.013 h−^1
same,pre-dose trough concentration,"severe renal impairment, Study Day 6",0.051 ± 0.011 ng/mL
same,pre-dose trough concentration,"severe renal impairment, Study Day 7",0.050 ± 0.015 ng/mL
same,pre-dose trough concentration,"severe renal impairment, Study Day 8",0.056 ± 0.012 ng/mL
